Data reported in patent US8946164B2, “Bioactive peptide” (Kyoto University, priority 2010, dated 2015).

Columns and labels:
mice [1] = assay: Elevated plus-maze test of anxiolytic effect; assay type: in vivo, mouse; conditions: for Minimum Effective Dose (anxiolytic effect): IP
Procedure: In the present invention, the anxiolytic effects can be evaluated by the elevated plus-maze test, which has been developed as a method for evaluating anxiety-related behaviors to screen anxiolytic drugs and has been widely used (FIG. 1). Specifically, the test is performed as follows: a candidate substance for an anxiolytic drug is orally or intraperitoneally administered to a mouse, the mouse is placed in an elevated plus-maze 30 minutes after the administration, and the potency of the anxiolytic effect is evaluated based on the number of entries into the open arms and the change in the time spent on the open arms.
The elevated plus-maze includes two open arms (25×5 cm) and two closed arms (25×5×15 cm), which were joined to a central platform 50 cm high above the floor (see FIG. 1). Because the closed arms were surrounded by barriers, a mouse could safely walk in the closed arms in spite of the elevated position. On the other hand, because the open arms were not surrounded by barriers, a mouse walking along the open arms would feel anxious that it might fall from the elevated position. Therefore, the more time the mouse spent in the open arms, or the greater the number of entries into the open arms, the less anxious the mouse would feel. Thus, the anxiolytic activity is determined based on these indices.
A mouse was placed on a portion of the central platform facing one of the open arms, and the test was started. During the 5-minute test time, the cumulative time spent in the open arms (abbr.: time in open arms), the number of visits to the open arms (abbr.: visits to open arms), and the total number of visits to the either arms (abbr.: total visits) were recorded. The percentage of the time spent in the open arms and the percentage of the number of visits to the open arms were calculated as indices of anxiety.
The data obtained from the elevated plus-maze test were represented as the mean values±SEM. The data were analyzed by one-way ANOVA, followed by the Fisher test for multiple comparisons.
Each of VYLPR (SEQ ID NO:1) (Example 1), YLPR (SEQ ID NO:2) (Example 2), and LPR (SEQ ID NO:3) (Example 3) dissolved in physiological saline was administered intraperitoneally (IP) or orally (PO) to mice (n=3 to 14) in the amount shown in each figure before the mice were placed on the central portion of the elevated plus-maze. The percentage of the time spent in the open arms, the percentage of the number of visits to the open arms, and the total number of visits to the both arms (total visits) were compared between groups administered each peptide and the control group (0 mg/kg). The results are shown in FIGS. 2 to 5, FIGS. 7 and 8, and Table 1.
Trypsin-digested ovalbumin was used as an active ingredient and was administered intraperitoneally and orally to test the anxiolytic effects using the open arms in the same manner as in Examples 1 to 3.
An aqueous solution of ovalbumin (20 mg/ml) was heated (10-min boiling), and bovine trypsin (E:S=1:100) was added to carry out a reaction at 37° C. for 5 hours. As a result, VYLPR (SEQ ID NO:1) was produced at a high efficiency of 44 mol %. When the aqueous solution of ovalbumin was not pre-heated, VYLPR (SEQ ID NO:1) was below the detection limit and was hardly produced even with the trypsin treatment. TPCK-treated Trypsin from bovine pancreas (Sigma) was used as the bovine trypsin. […]

mice [2] = assay: Elevated plus-maze test with peptide given in combination with an inhibitor or receptor antagonist; assay type: in vivo, mouse
Procedure: An anxiolytic peptide of the invention was administered in combination with the inhibitor or one of the antagonists for various receptors as follows, and tests were conducted in the same manner as in Example 1 in order to identify the effect of each antagonist on the anxiolytic activity of the peptide of the present invention, i.e., to identify the receptors on which the peptide of the invention acts.
COX inhibitor: Indomethacin, 10 mg/kg
DP1-R antagonist: BWA868C, 60 μg/kg

| Substance | Minimum Effective Dose (anxiolytic effect) (mice [1]) | anxiolytic effect in the presence of prostaglandin DP1 receptor antagonist (mice [2]; BWA868C 60 μg/kg, FIG. 10A) | anxiolytic effect in the presence of adenosine A2A receptor antagonist (mice [2]; SCH58261 0.1 mg/kg, FIG. 10B) | anxiolytic effect (mice [1]; intraperitoneal administration) | anxiolytic effect (mice [1]; oral administration) |
| --- | --- | --- | --- | --- | --- |
| Leu-Pro-Arg [LPR] | 0.3 mg/kg |  |  |  |  |
| Tyr-Leu-Pro-Arg (YLPR; Designed peptide) | 0.3 mg/kg |  |  |  |  |
| Val-Tyr-Leu-Pro-Arg (VYLPR; Designed peptide) | 0.3 mg/kg | inhibited | inhibited |  |  |
| Undigested ovalbumin: Undigested ovalbumin (with and without heat treatment) used as the control for the trypsin digest [reference compound] |  |  |  | did not show anxiolytic effects | did not show anxiolytic effects |
